Results as given in PubChem BioAssay AID1963976 (Molecular Pharmacology Branch, DTP, NCI, 2024).

System: 435261-313-R-J1-PDC tumor spheroid viability
Assay: Anticancer human tumor 435261-313-R-J1-PDC patient-derived colon adenocarcinoma cell line growth inhibition [PI3K]
Details: spheroids with HUVEC and MSC; for IC50: curve of first compound; for viability, T/C: stronger effect = lower value
How it was run: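 Spheroid viability read-out. Co-cultures contained the tumor line plus HUVEC and human MSCs. Each agent was paired with a PI3K inhibitor (inavolisib, alpelisib, duvelisib, copanlisib) across half-log dilutions starting at clinical Cmax, or at 10 microM when Cmax was unknown.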

[1] = second compound 0.0316 µM, first compound 0.0316 µM
[2] = second compound 0.0316 µM, first compound 0.1 µM
[3] = second compound 0.1 µM, first compound 0.0316 µM
[4] = second compound 0.1 µM, first compound 0.1 µM
[5] = second compound 0.316 µM, first compound 0.0316 µM
[6] = second compound 0.316 µM, first compound 0.1 µM
[7] = second compound 1 µM, first compound 0.0316 µM
[8] = second compound 1 µM, first compound 0.1 µM
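Further: spheroids exposed to compounds for 7 days.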

Cn1ncnc1[C@H]1c2n[nH]c(=O)c3cc(F)cc(c23)N[C@@H]1c1ccc(F)cc1 + CC(Nc1ncnc2nc[nH]c12)c1cc2cccc(Cl)c2c(=O)n1-c1ccccc1
IC50 (second compound 0.0316 µM): > 100 nM | IC50 (second compound 0.1 µM): > 100 nM | IC50 (second compound 0.316 µM): 76.3 nM | IC50 (second compound 1 µM): > 100 nM | IC50 (second compound 3.16 µM): > 100 nM | IC50 (second compound 10 µM): 0.725 nM | viability, T/C (second compound 0.0316 µM, first compound 0.000316 µM): 116% | viability, T/C (second compound 0.0316 µM, first compound 0.001 µM): 80.9% | viability, T/C (second compound 0.0316 µM, first compound 0.00316 µM): 76.1% | viability, T/C (second compound 0.0316 µM, first compound 0.01 µM): 82.5% | viability, T/C [1]: 59.2% | viability, T/C [2]: 53.5% | viability, T/C (second compound 0.1 µM, first compound 0.000316 µM): 90.6% | viability, T/C (second compound 0.1 µM, first compound 0.001 µM): 124% | viability, T/C (second compound 0.1 µM, first compound 0.00316 µM): 104% | viability, T/C (second compound 0.1 µM, first compound 0.01 µM): 106% | viability, T/C [3]: 85.2% | viability, T/C [4]: 69.9% | viability, T/C (second compound 0.316 µM, first compound 0.000316 µM): 81% | viability, T/C (second compound 0.316 µM, first compound 0.001 µM): 54.3% | viability, T/C (second compound 0.316 µM, first compound 0.00316 µM): 71.4% | viability, T/C (second compound 0.316 µM, first compound 0.01 µM): 78.3% | viability, T/C [5]: 62.1% | viability, T/C [6]: 45.6% | viability, T/C (second compound 1 µM, first compound 0.000316 µM): 80.3% | viability, T/C (second compound 1 µM, first compound 0.001 µM): 59.1% | viability, T/C (second compound 1 µM, first compound 0.00316 µM): 80.9% | viability, T/C (second compound 1 µM, first compound 0.01 µM): 82.1% | viability, T/C [7]: 56.6% | viability, T/C [8]: 52.7% | viability, T/C (second compound 3.16 µM, first compound 0.000316 µM): 53.3% | viability, T/C (second compound 3.16 µM, first compound 0.001 µM): 57.3% | viability, T/C (second compound 3.16 µM, first compound 0.00316 µM): 75.8% | viability, T/C (second compound 3.16 µM, first compound 0.01 µM): 49.5% | viability, T/C (second compound 3.16 µM, first compound 0.0316 µM): 71.1% | viability, T/C (second compound 3.16 µM, first compound 0.1 µM): 56.2% | viability, T/C (second compound 10 µM, first compound 0.000316 µM): 58% | viability, T/C (second compound 10 µM, first compound 0.001 µM): 50.8% | viability, T/C (second compound 10 µM, first compound 0.00316 µM): 34.9% | viability, T/C (second compound 10 µM, first compound 0.01 µM): 35.4% | viability, T/C (second compound 10 µM, first compound 0.0316 µM): 39% | viability, T/C (second compound 10 µM, first compound 0.1 µM): 33.3%

CC(C)NCC(C(=O)N1CCN(c2ncnc3c2C(C)CC3O)CC1)c1ccc(Cl)cc1 (centres undefined) + COc1c(OCCCN2CCOCC2)ccc2c3n(c(=NC(=O)c4cnc(N)nc4)nc12)CCN3
IC50 (second compound 0.00316 µM): 765 nM | IC50 (second compound 0.01 µM): 664 nM | IC50 (second compound 0.0316 µM): < 31.6 nM | IC50 (second compound 0.1 µM): < 31.6 nM | IC50 (second compound 0.316 µM): < 31.6 nM | IC50 (second compound 1 µM): < 31.6 nM | viability, T/C (second compound 0.00316 µM, first compound 0.0316 µM): 77.5% | viability, T/C (second compound 0.00316 µM, first compound 0.1 µM): 57.4% | viability, T/C (second compound 0.00316 µM, first compound 0.316 µM): 67.4% | viability, T/C (second compound 0.00316 µM, first compound 1 µM): 45% | viability, T/C (second compound 0.00316 µM, first compound 3.16 µM): 25.9% | viability, T/C (second compound 0.00316 µM, first compound 10 µM): 18.1% | viability, T/C (second compound 0.01 µM, first compound 0.0316 µM): 35.5% | viability, T/C (second compound 0.01 µM, first compound 0.1 µM): 72.5% | viability, T/C (second compound 0.01 µM, first compound 0.316 µM): 53.8% | viability, T/C (second compound 0.01 µM, first compound 1 µM): 45.8% | viability, T/C (second compound 0.01 µM, first compound 3.16 µM): 37.2% | viability, T/C (second compound 0.01 µM, first compound 10 µM): 22.3% | viability, T/C [1]: 29% | viability, T/C [2]: 24.9% | viability, T/C (second compound 0.0316 µM, first compound 0.316 µM): 40.3% | viability, T/C (second compound 0.0316 µM, first compound 1 µM): 17.9% | viability, T/C (second compound 0.0316 µM, first compound 3.16 µM): 17.2% | viability, T/C (second compound 0.0316 µM, first compound 10 µM): 13.7% | viability, T/C [3]: 16.9% | viability, T/C [4]: 13.9% | viability, T/C (second compound 0.1 µM, first compound 0.316 µM): 18.2% | viability, T/C (second compound 0.1 µM, first compound 1 µM): 14.3% | viability, T/C (second compound 0.1 µM, first compound 3.16 µM): 14.1% | viability, T/C (second compound 0.1 µM, first compound 10 µM): 8.48% | viability, T/C [5]: 8.02% | viability, T/C [6]: 10% | viability, T/C (second compound 0.316 µM, first compound 0.316 µM): 8.48% | viability, T/C (second compound 0.316 µM, first compound 1 µM): 7.53% | viability, T/C (second compound 0.316 µM, first compound 3.16 µM): 6.85% | viability, T/C (second compound 0.316 µM, first compound 10 µM): 3.75% | viability, T/C [7]: 3.46% | viability, T/C [8]: 4.26% | viability, T/C (second compound 1 µM, first compound 0.316 µM): 3.88% | viability, T/C (second compound 1 µM, first compound 1 µM): 3.78% | viability, T/C (second compound 1 µM, first compound 3.16 µM): 3.18% | viability, T/C (second compound 1 µM, first compound 10 µM): 1.67%
